Where two headings read alike, the source gives them in different places.
Experiment: Solubility studies of fulvestrant in solvents, co-solvents, oils and release rate modifiers
Type: physicochemical
Details: for solubility: read-out: Fulvestrant solubility achieved
Description: Solubility studies of fulvestrant were performed using various combinations of solvent, co-solvents, oils and release rate modifiers. The resultant data are shown herein below Table 1.

Work on C[C@]12CC[C@@H]3c4ccc(O)cc4C[C@@H](CCCCCCCCC[S+]([O-])CCCC(F)(F)C(F)(F)F)[C@H]3[C@@H]1CC[C@@H]2O (stereo partly drawn) [Fulvestrant, 7-alpha-[9-[(4,4,5,5,5-pentafluoropentyl)sulfinyl]nonyl]estra-1,3,5(10)-triene-3,17-beta-diol] yielded a Fulvestrant solubility achieved (Benzyl alcohol (4 v/v %):Diethylene glycol monoethyl ether (q.s. to 1.7 mL)) of 300 mg/1.7 mL, a solubility (Benzyl alcohol (10 v/v %):Castor oil (50 v/v %):Diethylene glycol monoethyl ether (q.s. to 1 mL)) of 151 mg/mL and a solubility (benzyl alcohol / diethylene glycol monoethyl ether mixture, Benzyl alcohol (2 v/v %):Diethylene glycol monoethyl ether (q.s. to 1 mL)) of 200 mg/mL.

Reference: US20170027958A1, “FULVESTRANT COMPOSITIONS” (THEMIS MEDICARE LIMITED, priority 2013, published 2017)
